Assay results: ChEMBL document CHEMBL1150840, “Onnamide F: a new nematocide from a southern Australian marine sponge, Trachycladus laevispirulifer” (2001)
Calls of active or inactive are those of the source. The rule behind the calls is not given here.

Assays:
Haemonchus contortus [1] = assay: Nematocidal activity against Haemonchus contortus; assay type: functional
Saccharomyces cerevisiae = assay: Antifungal activity against Saccharomyces cerevisiae; assay type: functional
Haemonchus contortus [2] = assay: Nematocidal activity against Haemonchus contortus assessed as inhibition of larval development at L1 stage at high concentration; assay type: functional, organism-based
Escherichia coli = assay: Antibacterial activity against Escherichia coli; assay type: functional, organism-based
Bacillus subtilis = assay: Antibacterial activity against Bacillus subtilis; assay type: functional, organism-based

Structure (SMILES) | LD99 (Haemonchus contortus [1]) [µg/mL] | LD99 (Saccharomyces cerevisiae) [µg/mL] | inhibition (Haemonchus contortus [2]) | Activity (Escherichia coli) | Activity (Bacillus subtilis)
C=C1C[C@](OC)([C@H](O)C(=O)N[C@@H](OC)[C@@H]2C[C@@H](OC)C(C)(C)[C@@H](CC(O)CCC/C=C/C=C/C(=O)OC)O2)O[C@H](C)[C@@H]1C (some centres not stated) [ONNAMIDE F METHYL ESTER] | 2.6 | 5.2 |  |  | 
C=C1C[C@](OC)([C@H](O)C(=O)N[C@@H](OC)[C@@H]2C[C@@H](OC)C(C)(C)[C@@H](CC(O)CCC/C=C/C=C/C(=O)O)O2)O[C@H](C)[C@@H]1C (some centres not stated) [ONNAMIDE F] | 5.2 | 1.4 | Active | inactive | inactive
